Data as given in patent publication US20160122307A1, “PERHYDROQUINOXALINE DERIVATIVES” (DR. AUGUST WOLFF GMBH & CO. KG ARZNEIMITTEL, priority 2013, published 2016).
Like-named read-outs stand apart in the source and are kept apart here.

How the values were obtained:
Human opiate κ receptors [1] = molecular target: T1, Human opiate κ receptors (Homo sapiens, UniProt P41145); assay: κ opioid receptor functional assay, [35S]GTPγS binding (assay C); type: biochemical; details: for EC50: read-out: GTPγS EC50; for activation at 1 µM: 0.5 h, read-out: % activation functional assay at 1 μM
[2] = system: arachidonic acid-induced ear inflammation; type: in vivo, mice
Human opiate κ receptors [3] = molecular target: T1, Human opiate κ receptors; type: binding; design: expressed in transfected cells; host or cells: HEK-293 cell membranes
[4] = system: oxazolone delayed type hypersensitivity reaction; assay: In vivo model for pruritus associated with the oxazolone model of a delayed type hypersensitivity reaction (assay D); design: species or system mice
Description: D. In Vivo Model for Pruritus Associated with the Oxazolone Model of a Delayed Type Hypersensitivity Reaction
Scratching activity in mice is measured after topical application of the test compound.

[5] = system: chronic oxazolone-induced ear inflammation; assay: In vivo model of chronic oxazolone-induced ear inflammation (assay E); design: species or system mice
Description: E. In Vivo Model of Chronic Oxazolone-Induced Ear Inflammation
Mice are challenged several times with oxazolone following an initial sensitization. Ear thickness is measured daily during the treatment period with topical application of the test compound (see e.g. Ottosen E. R. J. Med. Chem. 2003; 46: 5651-5662). At the end of the study ear weight is determined Ears are characterized histologically and by immunofluorescence. Gene expression was quantified (RT-qPCR).

[6] = system: acetic acid-induced writhing; assay: Acetic acid-induced writhing assay in mice (assay G); type: in vivo; details: s.c.
Description: G. Acetic Acid-Induced Writhing Assay in Mice
Analgesic activity against visceral or chemical pain is assessed by application of the test compound prior to application of an i.p. injection of acetic acid. The number of writhing responses that occur in response to acetic acid are counted (see e.g. Barber A. Med. Res. Rev. 1992; 12:525-62 and Ramabadran K. Pharm. Res. 1986,3:263-270).

[7] = system: UVB-induced inflammatory pain; assay: UVB-induced inflammatory pain in rats (assay H); type: in vivo, Sprague-Dawley rats; details: s.c.
Description: H. UVB-Induced Inflammatory Pain In Rats
Male, Sprague-Dawley rats receive a single exposure of UVB radiation to the left hind paw. Mechanical hyperalgesia is assessed using a digital Randall-Selitto device (dRS). Thermal hyperalgesia is measured using a plantar test apparatus (see e.g. Davies S. L. J. Neurosci. Methods 2005; 148:161-166, Bishop T. Pain 2007; 131:70-82 and Graham I. J. Invest. Dermatol. 2004; 122:183-189).

vasculitis = assay: Vasculitis model in mice, LPS/TNF-α (assay I); type: in vivo, C57BL/6 mice; details: dose dependent
Description: I. Vasculitis Model in Mice
C57BL/6 mice receive an intradermal injection of LPS. On the following day vasculitis is induced by intradermal injection of TNF-α. In addition Evan's blue is injected. 24 hours following the injection of TNF-α mice are scarified. Ear thickness is measured and the degree of vasculitis is assessed by counting petechiae. The content of Evan's blue in the ear tissue is a marker for vascular permeability. Ears are analyzed by histology, FACS and RT-qPCR.

[8] = system: Imiquimod-induced psoriasis; assay: Imiquimod-induced psoriasis in mice (assay J); type: in vivo, Balb/c mice; details: s.c. or i.v.
Description: J. Imiquimod-Induced Psoriasis in Mice
Psoriasis in Balb/c mice is induced by daily application of topical Imiquimod for 8 days. Animal are treated with the test items (topical or systemically). Scratching was monitored. On day 9 the skin phenotype is characterized. Skin is analyzed histologically. Lymph nodes are analyzed by flow cytometry and RT-qPCR.

DSS-induced colitis = DSS-induced colitis in mice (assay K); type: in vivo, C57BL/6 mice
Description: K. DSS-Induced Colitis in Mice
Colitis is induced by treatment of C57BL/6 mice with 2.5% dextran sulfate (DSS) in the drinking water for 7 days. Mice are treated with the test item. Weight is monitored daily. At day 8 mice are scarified. A haemocult test is performed. The size of the colon is measured. Colitis is determined using a scoring system in H&E stains.

[9] = system: chloroquine-induced scratching; assay: Effects on chloroquine-induced scratching (assay L); type: in vivo; details: intrathecal injection, mice
Description: L. Effects on Chloroquine-Induced Scratching
Compounds are intrathecally injected in a volume of 5 μl, 10 min before the i.d. injection of chloroquine (100 μg/10 μl) in the rostral back. Following the i.d. cheek injection, mice are placed in an arena with a clear glass floor and videotaped from beneath for 30 min. Videotapes are reviewed by blinded investigators, who count the number of hindlimb scratch bouts.

[10] = topical, versus vehicle control

T1 sequence (P41145 whole entry): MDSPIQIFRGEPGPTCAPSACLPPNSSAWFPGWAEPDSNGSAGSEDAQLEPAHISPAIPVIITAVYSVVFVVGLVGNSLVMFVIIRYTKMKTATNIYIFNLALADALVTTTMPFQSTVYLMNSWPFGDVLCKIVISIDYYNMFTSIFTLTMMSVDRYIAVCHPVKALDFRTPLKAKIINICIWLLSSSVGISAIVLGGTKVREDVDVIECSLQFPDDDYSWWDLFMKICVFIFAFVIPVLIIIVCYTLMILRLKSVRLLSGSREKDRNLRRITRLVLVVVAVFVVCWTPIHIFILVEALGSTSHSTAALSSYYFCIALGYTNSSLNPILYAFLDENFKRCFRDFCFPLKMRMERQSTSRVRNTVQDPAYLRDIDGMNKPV

Structure (SMILES)	% activation functional assay at 1 μM (Human opiate κ receptors [1])	EC50 (Human opiate κ receptors [1])	increase in ear thickness [2, 10]	% binding at 100 nM (Human opiate κ receptors [3])	activation at 1 µM (Human opiate κ receptors [1])	chloroquine-evoked scratching [9]	also measured
CNC(=O)C(=O)N1CCN(C(=O)Cc2ccc(Cl)c(Cl)c2)[C@@H]2[C@@H](N3CC[C@H](O)C3)CCC[C@@H]21 [Example 145]	103%	0.01 to 0.1 µM	dose dependently prevented the increase	62%			
COC(=O)N1CCN(C(=O)Cc2ccc(Cl)c(Cl)c2)[C@@H]2[C@@H](N3CCCC3)CCC[C@@H]21 [Example 89, (4aR,5S,8aS)-methyl 4-(2-(3,4-dichlorophenyl)acetyl)-5-(pyrrolidin-1-yl)octahydroquinoxaline-1(2H)-carboxylate]	100%				107%		number of scratch events ([4]; mice, topical): significantly reduced; ear thickness ([4]; mice, topical, compared to vehicle treated animals): accelerated decrease; epidermal thickness, inflammatory infiltrate and epidermal oedema (histology) ([4]; semi-quantitative analysis): reduction; inflammatory infiltrate (CD117+ mast cells and Gr-1+ neutrophils) ([5]; immunohistochemistry): dose dependent reduction; ear thickness ([5]; mice, topical, compared to vehicle control): dose dependent decreased; epidermal thickness, inflammatory infiltrate and epidermal oedema (histology) ([5]; semi-quantitative analysis): reduction; increase in ear thickness ([2]; mouse, in vivo, sc): prevented the increase; scratching activity ([2]; mouse, in vivo, sc): significantly reduced; number of writhing responses [6]: significant, dose dependent reduction; thermal hyperalgesia [7]: significant, dose dependent reduction; ear thickness (vasculitis): reduction; inflammatory infiltrate (histology) (vasculitis): reduced inflammatory infiltrate; number of petechiae (vasculitis): reduced number; scratch numbers [8]: lower; size of the rete ridges ([8]; compared to vehicle control): decreased size; weight loss (DSS-induced colitis; compared to vehicle control): decreased weight loss; reduction in colon size induced by DSS (DSS-induced colitis; mouse, in vivo): normalized
COC(=O)c1ccc(C(=O)N2CCN(C(=O)Cc3ccc(Cl)c(Cl)c3)[C@@H]3[C@@H](N4CCCC4)CCC[C@@H]32)cc1.Cl [Example 114]	93%	0.01 to 0.1 µM	dose dependently prevented the increase			significantly inhibited	
CNC(=O)C(=O)N1CCN(C(=O)Cc2ccc(Cl)c(Cl)c2)[C@@H]2[C@@H](N3CCCC3)CCC[C@@H]21.Cl [Example 118]	104%	< 0.01 µM	dose dependently prevented the increase				
COC(=O)c1ccc(C(=O)N2CCN(C(=O)Cc3ccc(Cl)c(Cl)c3)C3C(N4CCCC4)CCCC32)cc1 (racemic) [Example 81]			dose dependently prevented the increase		102%	significantly inhibited	
CS(=O)(=O)N1CCN(C(=O)Cc2ccc(F)c(Cl)c2)C2C(N3CCC(O)C3)CCCC21.Cl (stereo not shown) [Example 125]	99%	< 0.01 µM	dose dependently prevented the increase	80%			
